As usually defined, the IC50 is the concentration needed to halve the response being measured.

The experiment deals with human TRPM8 (Homo sapiens (Human), UniProt Q7Z2W7). Put plainly: TRPM8 inhibition assay (menthol-induced calcium influx, FDSS). It is filed as cell-based. Conditions: HEK293 cells stably expressing human TRPM8; 100 μM menthol; Fura-2AM Ca2+ signal; read-out: TRPM8 Blocking Test (IC50). On the procedure: The functional activity of compounds was determined by measuring changes in intracellular calcium concentration using a Ca^2+ sensitive fluorescent dye. The changes in fluorescent signal were monitored by the cell imaging technology by Hamamatsu Photonics's Functional Drug Screening System (FDSS). […] HEK293 cells stably expressing human TRPM8 were grown in flasks. On assay day, the culture medium was removed, and cells were washed with phosphate-buffered saline (PBS) and harvested with PBS containing 2 mM ethylenediaminetetraacetic acid, disodium salt (EDTA, 2Na). […] Subsequently, suspended 20,000 to 50,000 cells per well were incubated with test compound (at varying concentrations) in each well for 20 min at 37° C. Changes in intracellular Ca^2+ evoked by 100 μM menthol were measured for 2 min using FDSS. IC50 vales were determined from four-point concentration-response studies. Curves were generated using the average of quadruplicate wells for each data point.
human TRPM8, sequence (Q7Z2W7 whole entry): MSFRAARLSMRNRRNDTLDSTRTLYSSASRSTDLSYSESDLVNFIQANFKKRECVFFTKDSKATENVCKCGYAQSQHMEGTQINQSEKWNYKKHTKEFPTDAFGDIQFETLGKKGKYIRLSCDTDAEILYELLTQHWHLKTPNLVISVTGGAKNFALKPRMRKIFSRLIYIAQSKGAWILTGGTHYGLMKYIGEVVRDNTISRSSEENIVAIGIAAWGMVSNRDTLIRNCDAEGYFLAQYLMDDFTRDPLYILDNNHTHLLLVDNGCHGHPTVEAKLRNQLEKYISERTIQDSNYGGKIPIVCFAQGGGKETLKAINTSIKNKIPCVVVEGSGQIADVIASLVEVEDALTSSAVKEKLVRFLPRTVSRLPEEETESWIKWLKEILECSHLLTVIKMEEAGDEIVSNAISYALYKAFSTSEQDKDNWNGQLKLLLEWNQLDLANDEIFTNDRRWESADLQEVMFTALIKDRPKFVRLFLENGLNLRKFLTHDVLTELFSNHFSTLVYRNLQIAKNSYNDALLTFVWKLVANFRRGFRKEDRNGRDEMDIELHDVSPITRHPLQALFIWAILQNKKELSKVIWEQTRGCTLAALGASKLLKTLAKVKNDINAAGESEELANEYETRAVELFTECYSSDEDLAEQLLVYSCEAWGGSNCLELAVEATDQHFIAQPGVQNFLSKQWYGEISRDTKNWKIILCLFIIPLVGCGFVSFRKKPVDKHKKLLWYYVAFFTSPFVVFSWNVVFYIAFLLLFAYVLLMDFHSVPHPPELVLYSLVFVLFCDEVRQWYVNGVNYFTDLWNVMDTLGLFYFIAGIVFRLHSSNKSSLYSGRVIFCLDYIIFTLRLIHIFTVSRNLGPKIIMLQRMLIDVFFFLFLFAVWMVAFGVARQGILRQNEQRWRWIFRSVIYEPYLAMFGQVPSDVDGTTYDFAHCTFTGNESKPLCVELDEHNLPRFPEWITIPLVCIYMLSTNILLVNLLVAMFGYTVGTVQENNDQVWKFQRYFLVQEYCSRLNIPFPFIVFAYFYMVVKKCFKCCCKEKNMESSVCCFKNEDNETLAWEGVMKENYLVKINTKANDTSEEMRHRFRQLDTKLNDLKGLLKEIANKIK
Regarding `CC(O)c1c(N(Cc2ccc(OC(F)(F)F)cc2)S(=O)(=O)c2ccc(C(=O)O)cc2)ncc2ccccc12` (stereo not drawn) [Example 113, 4-({[4-(1-hydroxyethyl)isoquinolin-3-yl][4-(trifluoromethoxy)benzyl]amino}sulfonyl)benzoic acid], the IC50 amounted to 0.025 µM.

As for `Cc1c(N(Cc2ccc(OC(F)(F)F)cc2)S(=O)(=O)c2ccc(C(=O)O)cc2)nc(C(C)O)c2ccccc12` (stereo not drawn) [Example 115, 4-({[1-(1-hydroxyethyl)-4-methylisoquinolin-3-yl][4-(trifluoromethoxy)benzyl]amino}sulfonyl)benzoic acid], the concentration for half-maximal inhibition (IC50) is 0.097 µM.

Turning to `Cc1c(N(Cc2ccc3cc[nH]c3c2)S(=O)(=O)c2ccc(C(=O)O)cc2)ncc2ccccc12` [Example 117, 4-{[(1H-indol-6-ylmethyl)(4-methylisoquinolin-3-yl)amino]sulfonyl}benzoic acid], the concentration for half-maximal inhibition (IC50) stood at 0.054 µM.

In the case of `Cc1c(N(Cc2ccc3ccn(C)c3c2)S(=O)(=O)c2ccc(C(=O)O)cc2)ncc2ccccc12` [Example 119, 4-{[[(1-methyl-1H-indol-6-yl)methyl](4-methylisoquinolin-3-yl)amino]sulfonyl}benzoic acid], the 50% inhibitory concentration (IC50) was found to be 0.092 µM.

As for `Cc1c(N(Cc2ccc3c(Cl)c[nH]c3c2)S(=O)(=O)c2ccc(C(=O)O)cc2)ncc2ccccc12` [Example 121, 4-{[[(3-chloro-1H-indol-6-yl)methyl](4-methylisoquinolin-3-yl)amino]sulfonyl}benzoic acid], the half-maximal inhibitory concentration (IC50) was determined as 0.015 µM.

Regarding `Cc1c(N(Cc2ccc3c(Cl)cn(C)c3c2)S(=O)(=O)c2ccc(C(=O)O)cc2)ncc2ccccc12` [Example 122, 4-{[[(3-chloro-1-methyl-1H-indol-6-yl)methyl](4-methylisoquinolin-3-yl)amino]sulfonyl}benzoic acid], the IC50 was found to be 0.057 µM.

Take `Cc1c(N(Cc2ccc(OC(F)(F)F)cc2)S(=O)(=O)c2ccc(C(N)=O)cc2)ncc2ccccc12` [Example 123, 4-({(4-methylisoquinolin-3-yl)[4-(trifluoromethoxy)benzyl]amino}sulfonyl)benzamide]: the IC50 stood at 0.021 µM.

As to `CONC(=O)c1ccc(S(=O)(=O)N(Cc2ccc(OC(F)(F)F)cc2)c2ncc3ccccc3c2C)cc1` [Example 124, N-methoxy-4-({(4-methylisoquinolin-3-yl)[4-(trifluoromethoxy)benzyl]amino}sulfonyl)benzamide], the IC50 worked out at 0.013 µM.

Consider `Cc1c(N(Cc2ccc(OC(F)(F)F)cc2)S(=O)(=O)c2ccc(C(C)(C)O)cc2)ncc2ccccc12` [Example 125, 4-(1-hydroxy-1-methylethyl)-N-(4-methylisoquinolin-3-yl)-N-[4-(trifluoromethoxy)benzyl]benzenesulfonamide], for which the IC50 worked out at 0.062 µM.

As for `Cc1c(N(Cc2nc3ccccc3o2)S(=O)(=O)c2ccc(C(=O)O)cc2)ncc2ccccc12` [Example 127], the IC50 was 0.195 µM.

For the compound `Cc1c(N(Cc2ccc(C(O)(C(F)(F)F)C(F)(F)F)cc2)S(=O)(=O)c2ccc(C(=O)O)cc2)ncc2ccccc12` [Example 128], the IC50 was determined as 0.04 µM.

Consider `Cc1c(N(Cc2ccc(OC(F)(F)F)cc2)S(=O)(=O)c2ccc(C(=O)O)cc2)nc(Br)c2ccccc12` [Example 129], for which the half-maximal inhibitory concentration (IC50) stood at 0.015 µM.

Regarding `O=C(O)c1ccc(S(=O)(=O)N(Cc2ccc(OC(F)(F)F)cc2)c2ncc(Cl)c3ccccc23)cc1` [Example 130], the half-inhibitory concentration (IC50) stood at 0.094 µM.

As for `Cc1ccc2c(C)c(N(Cc3ccc(OC(F)(F)F)cc3)S(=O)(=O)c3ccc(C(=O)O)cc3)ncc2c1` [Example 131], the half-inhibitory concentration (IC50) was 0.109 µM.

With `Cc1c(N(Cc2ccc(F)c(C(F)(F)F)c2)S(=O)(=O)c2ccc(C(=O)O)cc2)nc(C2CC2)c2ccccc12` [Example 132], the IC50 was determined as 0.0038 µM.

As for `Cc1cc2cccc(Cl)c2nc1N(Cc1ccc(OC(F)(F)F)cc1)S(=O)(=O)c1ccc(C(=O)O)cc1` [Example 133], the IC50 was found to be 0.0043 µM.

Consider `Cc1cc2ccc(Cl)cc2nc1N(Cc1ccc(OC(F)(F)F)cc1)S(=O)(=O)c1ccc(C(=O)O)cc1` [Example 134], for which the half-maximal inhibitory concentration (IC50) was 0.695 µM.

In the case of `Cc1ccc2cnc(N(Cc3ccc(OC(F)(F)F)cc3)S(=O)(=O)c3ccc(C(=O)O)cc3)c(C)c2c1` [Example 135], the IC50 came out at 0.136 µM.

As to `Cc1cccc2c(C)c(N(Cc3ccc(OC(F)(F)F)cc3)S(=O)(=O)c3ccc(C(=O)O)cc3)ncc12` [Example 136], the half-maximal inhibitory concentration (IC50) worked out at 0.031 µM.

Take `Cc1cccc2cnc(N(Cc3ccc(OC(F)(F)F)cc3)S(=O)(=O)c3ccc(C(=O)O)cc3)c(C)c12` [Example 137]: the 50% inhibitory concentration (IC50) is 0.0031 µM.

On to `Cc1c(N(Cc2ccccc2)S(=O)(=O)c2ccc(C(=O)O)cc2)nc(C2CC2)c2ccccc12` [Example 139], for which the IC50 was 0.012 µM.

Regarding `O=C(O)c1ccc(S(=O)(=O)N(Cc2ccc(OC(F)(F)F)cc2)c2cc3ccccc3c(Br)n2)cc1` [Example 143], the half-maximal inhibitory concentration (IC50) was found to be 0.131 µM.

Consider `CCc1cc2ccccc2nc1N(Cc1ccc(OC(F)(F)F)cc1)S(=O)(=O)c1ccc(C(=O)O)cc1` [Example 144], for which the IC50 was 0.054 µM.

Take `Cc1cc2cc(F)ccc2nc1N(Cc1ccc(OC(F)(F)F)cc1)S(=O)(=O)c1ccc(C(=O)O)cc1` [Example 145]: the IC50 was 0.091 µM.

With `Cc1cc2ccc(F)cc2nc1N(Cc1ccc(OC(F)(F)F)cc1)S(=O)(=O)c1ccc(C(=O)O)cc1` [Example 146], the half-inhibitory concentration (IC50) worked out at 0.07 µM.

For the compound `O=C(O)c1ccc(S(=O)(=O)N(Cc2ccc(OC(F)(F)F)cc2)c2cc3c(Cl)cccc3c(Br)n2)cc1` [Example 148], the half-inhibitory concentration (IC50) stood at 0.287 µM.

On to `CC(C)c1nc(N(Cc2ccc(OC(F)(F)F)cc2)S(=O)(=O)c2ccc(C(=O)O)cc2)c(C(C)C)c2ccccc12` [Example 150], for which the IC50 worked out at 0.048 µM.

Consider `CC(=O)c1ccc(S(=O)(=O)N(Cc2ccc(OC(F)(F)F)cc2)c2ncc3ccccc3c2C)cc1` [Example 152, 4-acetyl-N-(4-methylisoquinolin-3-yl)-N-[4-(trifluoromethoxy)benzyl]benzenesulfonamide], for which the 50% inhibitory concentration (IC50) amounted to 0.095 µM.

Turning to `O=C(O)c1ccc(S(=O)(=O)N(Cc2ccc(OC(F)(F)F)cc2)c2ncc3ccccc3c2Br)cc1` [Example 154], the half-inhibitory concentration (IC50) stood at 0.0023 µM.

As for `CCc1c(N(Cc2ccc(OC(F)(F)F)cc2)S(=O)(=O)c2ccc(C(=O)O)cc2)ncc2ccccc12` [Example 155], the IC50 came to 0.0062 µM.

Consider `O=C(O)c1ccc(S(=O)(=O)N(Cc2ccc(OC(F)(F)F)cc2)c2cc3ccccc3cn2)cc1` [Example 156], for which the IC50 amounted to 0.023 µM.

As to `Cc1c(N(Cc2ccc(C(C)(O)C(F)(F)F)c(F)c2)S(=O)(=O)c2ccc(C(=O)O)cc2)ncc2ccccc12` (stereo not drawn) [Example 169], the 50% inhibitory concentration (IC50) was determined as 0.055 µM.

Consider `Cc1c(N(Cc2ccc(CC3CC3)c(F)c2)S(=O)(=O)c2ccc(C(=O)O)cc2)ncc2ccccc12` [Example 170], for which the IC50 was 0.0029 µM.

As for `Cc1c(N(Cc2ccc(CC3CC3)cc2F)S(=O)(=O)c2ccc(C(=O)O)cc2)ncc2ccccc12` [Example 171], the IC50 was determined as 0.0071 µM.

As to `Cc1c(N(Cc2ccc(C(C)(O)C(F)(F)F)c(Cl)c2)S(=O)(=O)c2ccc(C(=O)O)cc2)ncc2ccccc12` (stereo not drawn) [Example 172], the IC50 worked out at 0.015 µM.

`Cc1c(N(Cc2ccc3c(c2)CCC3(O)C(F)(F)F)S(=O)(=O)c2ccc(C(=O)O)cc2)ncc2ccccc12` (stereo not drawn) [Example 173]: the IC50 stood at 0.078 µM.

Turning to `Cc1c(N(Cc2ccc(C(C)(O)C(F)(F)C(F)(F)F)cc2)S(=O)(=O)c2ccc(C(=O)O)cc2)ncc2ccccc12` (stereo not drawn) [Example 174], the IC50 worked out at 0.035 µM.

Turning to `Cc1c(N(Cc2cc(F)c3c(c2)CCC3)S(=O)(=O)c2ccc(C(=O)O)cc2)ncc2ccccc12` [Example 175], the IC50 is 0.0044 µM.

Take `Cc1c(N(Cc2ccc3c(Cl)n[nH]c3c2)S(=O)(=O)c2ccc(C(=O)O)cc2)ncc2ccccc12` [Example 176]: the half-inhibitory concentration (IC50) stood at 0.021 µM.

Take `Cc1c(N(Cc2ccc(C(O)(C3CC3)C(F)(F)F)cc2)S(=O)(=O)c2ccc(C(=O)O)cc2)ncc2ccccc12` (stereo not drawn) [Example 177]: the concentration for half-maximal inhibition (IC50) stood at 0.03 µM.

Regarding `Cc1c(N(Cc2ccc3cn[nH]c3c2)S(=O)(=O)c2ccc(C(=O)O)cc2)ncc2ccccc12` [Example 178], the IC50 worked out at 0.601 µM.

As to `Cc1c(N(C2CCc3cc(OC(F)(F)F)ccc32)S(=O)(=O)c2ccc(C(=O)O)cc2)ncc2ccccc12` (stereo not drawn) [Example 179], the half-maximal inhibitory concentration (IC50) turned out to be 0.0021 µM.

Regarding `Cc1cc2ccccc2nc1N(Cc1ccc2c(c1)CCCC2)S(=O)(=O)c1ccc(C(=O)O)cc1` [Example 180], the half-maximal inhibitory concentration (IC50) was determined as 0.0069 µM.

As to `Cc1c(N(Cc2ccc(C(F)(F)C3CC3)c(Cl)c2)S(=O)(=O)c2ccc(C(=O)O)cc2)nc(C2CC2)c2ccccc12` [Example 181], the concentration for half-maximal inhibition (IC50) was determined as 0.001 µM.

For `Cc1cc2ccccc2nc1N(Cc1ccc(C(F)(F)C2CC2)cc1)S(=O)(=O)c1ccc(C(=O)O)cc1` [Example 182], the IC50 turned out to be 0.004 µM.

As to `Cc1cc2ccccc2nc1N(Cc1ccc(CC2CC2)cc1)S(=O)(=O)c1ccc(C(=O)O)cc1` [Example 183], the IC50 amounted to 0.0077 µM.

For `O=C(O)c1ccc(S(=O)(=O)N(c2ncc3ccccc3c2C2CC2)C2CCc3cc(OC(F)(F)F)ccc32)cc1` (stereo not drawn) [Example 187], the 50% inhibitory concentration (IC50) worked out at 0.128 µM.

As to `Cc1nc2cc(CN(c3ncc4ccccc4c3C)S(=O)(=O)c3ccc(C(=O)O)cc3)ccc2s1` [Example 188], the IC50 was found to be 0.155 µM.

Turning to `Cc1c(N(Cc2ccc(C(F)(F)C3CCC3)cc2)S(=O)(=O)c2ccc(C(=O)O)cc2)ncc2ccccc12` [Example 189], the IC50 is 0.0017 µM.

With `Cc1nc2ccc(CN(c3ncc4ccccc4c3C)S(=O)(=O)c3ccc(C(=O)O)cc3)cc2s1` [Example 190], the half-inhibitory concentration (IC50) stood at 0.148 µM.

Turning to `Cc1c(N(Cc2ccc(C(F)(F)C3CC3)cc2)S(=O)(=O)c2ccc(C(=O)O)cc2)ncc2ccccc12` [Example 191], the IC50 came out at 0.0046 µM.

The values are drawn from patent US8987445B2, “Sulfonamide compounds having TRPM8 antagonistic activity” (Mitsubishi Tanabe Pharma Corporation, priority 2011, dated 2015).
